From patent US20250002453A1, “PHARMACEUTICALLY ACCEPTABLE SALT OF ELIGLUSTAT AND CRYSTAL FORM THEREOF” (SPEROGENIX (SHANGHAI) MEDTECH CO., LTD., priority 2021, published 2025)
Entries after “also recorded” stand apart in the source; their conditions may differ. Like-named read-outs stand apart in the source and are kept apart here.

Experiments:
[1] = Evaluation of hygroscopicity by Dynamic Vapor Sorption (DVS); type: physicochemical; details: for Transformation of crystalline form: after DVS test
Description: Dynamic Vapor Sorption (DVS) profiles are collected on the DVS Intrinsic of SMS (Surface Measurement Systems). Relative humidity at 25° C. is corrected with the deliquescent points of LiCl, Mg(NO3)2 and KCl.
The hygroscopicity of crystalline form B/crystalline form C of 1,5-naphthalene disulfonate, crystalline form A of oxalate, crystalline form A of tartrate and free crystalline form A were evaluated by DVS.

[2] = Dynamic solubility test (water, SGF, FaSSIF, FeSSIF; 37° C.; 1, 4 and 24 hours); type: physicochemical; details: for S: Solubility (free concentration) / pH (of filtrate) / FC: Crystalline form transformation: 37° C.; for FC: Crystalline form transformation: XRPD of residual solid
Description: 0.2 g sodium chloride and 0.1 g Triton X-100 are weighted into a 100 mL volumetric flask. Pure water is added for dissolution, stirred until the solid is completely dissolved, about 1.632 mL hydrochloric acid (1M) is added, and the pH is adjusted to 1.8 with 1M hydrochloric acid or 1M sodium hydroxide, and finally it is diluted to volume with pure water.
0.34 g sodium dihydrogen phosphate (NaH2PO4, anhydrous), 0.042 g sodium hydroxide, and 0.62 g sodium chloride are weighted respectively into a 100 mL volumetric flask, about 48 mL pure water is added for dissolution, the pH is adjusted to 6.5 with 1M hydrochloric acid or 1M sodium hydroxide, and finally it is diluted to volume with pure water to obtain a stock solution. A 50-mL volumetric flask is taken. 0.11 g of SIF powder is added, and dissolved with the above stock solution, then diluted to volume. The powder is completely dissolve by ultrasound.
(§1) The purity test, dynamic solubility and stability test in the experiment are completed by Agilent 1260 high performance liquid chromatography. The salt-forming molar ratio test of ions is completed by ion chromatography test.
The dynamic solubility of crystalline form B/crystalline form C of 1,5-naphthalene disulfonate, crystalline form A of oxalate, crystalline form A of tartrate and free crystalline form A in water and three biological solvents were evaluated.
After sampling at each time point, the samples were centrifugally filtered (0.45 μm PTFE filter head), the free salt concentration and pH value in the filtrate were measured, and the solid samples after centrifugation were tested for XRPD.

[3] = Solid state stability assessment (XRPD and HPLC after exposure at 25° C./60% RH and 40° C./75% RH); type: physicochemical
Description: XRPD patterns are collected on an X-ray powder diffraction analyzer produced by PANalytacal, and Table 2 lists the XRPD parameters.
as §1
After leaving the crystalline form C of 1,5-naphthalene disulfonate in the exposure evaporation at 25° C./60% RH and 40° C./75% RH for 1 week, […] and 4 weeks. The physical and chemical stability of the sample was tested by XRPD and HPLC, and the stability data of crystalline form A of tartrate and free crystalline form A at 1 week, 2 weeks and 4 weeks were used as a reference. At the same time, the stability of crystalline form B of 1,5-naphthalene disulfonate and crystalline form A of oxalate was tested under the conditions of 25° C./60% RH and 40° C./75% RH for 1 week.

[4] = as described in WO2011066352A1; cited from earlier work
[5] = plasma concentration of eliglustat 500 ng/ml; cited from earlier work
[6] = 1 week of exposure at 25° C./60% RH and 40° C./75% RH
[7] = left exposed for 4 weeks at 25° C./60% RH and 40° C./75% RH

| Hygroscopic weight gain at 25° C./80% RH ([1]; DVS) [%] | Transformation of crystalline form [1] | S: Solubility (free concentration) ([2]; FaSSIF, 1 hr) [µg/mL] | pH (of filtrate) ([2]; FaSSIF, 1 hr) | S: Solubility (free concentration) ([2]; FaSSIF, 4 hrs) [µg/mL] | pH (of filtrate) ([2]; FaSSIF, 4 hrs) | S: Solubility (free concentration) ([2]; FaSSIF, 12 hrs) [µg/mL] | pH (of filtrate) ([2]; FaSSIF, 12 hrs) | S: Solubility (free concentration) ([2]; H2O, 1 hr) [µg/mL] | pH (of filtrate) ([2]; H2O, 1 hr) | FC: Crystalline form transformation ([2]; H2O, 1 hr) | S: Solubility (free concentration) ([2]; H2O, 4 hrs) [µg/mL] | pH (of filtrate) ([2]; H2O, 4 hrs) | FC: Crystalline form transformation ([2]; H2O, 4 hrs) | S: Solubility (free concentration) ([2]; H2O, 12 hrs) [µg/mL] | pH (of filtrate) ([2]; H2O, 12 hrs) | FC: Crystalline form transformation ([2]; H2O, 12 hrs) | S: Solubility (free concentration) ([2]; SGF, 1 hr) [µg/mL] | pH (of filtrate) ([2]; SGF, 1 hr) | S: Solubility (free concentration) ([2]; SGF, 4 hrs) [µg/mL] | Structure (SMILES) | further results |
| --- | --- | --- | --- | --- | --- | --- | --- | --- | --- | --- | --- | --- | --- | --- | --- | --- | --- | --- | --- | --- | --- |
|  |  |  |  |  |  |  |  |  |  |  |  |  |  |  |  |  |  |  |  | CCCCCCCC(=O)N[C@H](CN1CCCC1)[C@H](O)c1ccc2c(c1)OCCO2.O=S(=O)(O)c1cccc2c(S(=O)(=O)O)cccc12 [Eliglustat 1,5-naphthalene disulfonate] | hygroscopicity compared with eliglustat hemitartrate crystalline form A ([1]; comparison in words): lower hygroscopicity over eliglustat hemitartrate crystalline form A; solubility difference in water and simulated gastric fluid ([2]; water versus SGF, in words): small |
| 0.59 | Change to crystalline | 2700 | 6.52 | 2700 | 6.51 | 2600 | 6.52 | 1900 | 7.67 | Yes | 2000 | 7.67 | Yes | 2000 | 7.75 | Yes | 2700 | 1.84 | 2500 | CCCCCCCC(=O)N[C@H](CN1CCCC1)[C@H](O)c1ccc2c(c1)OCCO2.CCCCCCCC(=O)N[C@H](CN1CCCC1)[C@H](O)c1ccc2c(c1)OCCO2.O=S(=O)(O)c1cccc2c(S(=O)(=O)O)cccc12 | Transformation of crystalline form ([1]; listed as crystalline form B of 1,5-naphthalene disulfonate): changed to crystalline form C; hygroscopic weight gain (in words) ([1]; humidity higher than 80% RH at 25° C.): significant hygroscopic weight gain; decrease in HPLC purity [3, 6]: no decrease in HPLC purity was observed; change in crystalline form (XRPD) ([3]; left exposed for a week at 40° C./75% RH): partially transformed into the crystalline form C; FC: Crystalline form transformation ([2]; FaSSIF, 1 hr): Yes; FC: Crystalline form transformation ([2]; FaSSIF, 4 hrs): Yes; FC: Crystalline form transformation ([2]; FaSSIF, 12 hrs): Yes; FC: Crystalline form transformation ([2]; SGF, 1 hr): Yes; pH (of filtrate) ([2]; SGF, 4 hrs): 1.75; FC: Crystalline form transformation ([2]; SGF, 4 hrs): Yes; S: Solubility (free concentration) ([2]; SGF, 12 hrs): 2300 µg/mL; pH (of filtrate) ([2]; SGF, 12 hrs): 1.77; FC: Crystalline form transformation ([2]; SGF, 12 hrs): Yes |
| 7.64 | No change | ≥8100 | 6.52 | ≥8200 | 6.48 | ≥8100 | 6.47 | 6800 | 7.07 | No | 7800 | 7.51 | No | 8000 | 7.30 | No | ≥8400 | 2.19 | ≥8500 | CCCCCCCC(=O)N[C@H](CN1CCCC1)[C@H](O)c1ccc2c(c1)OCCO2.CCCCCCCC(=O)N[C@H](CN1CCCC1)[C@H](O)c1ccc2c(c1)OCCO2.O=C(O)C(=O)O [Crystalline form A of oxalate] | hygroscopic weight gain at 25° C./80% RH ([1]; DVS): 7.64 wt %; Transformation of crystalline form ([1]; listed as crystalline form A of oxalate): no change in crystalline form; weight loss (in words) ([1]; humidity lower than 10% RH): Significant weight loss; decrease in HPLC purity [3, 6]: no decrease in HPLC purity was observed; pH (of filtrate) ([2]; SGF, 4 hrs): 2.17; S: Solubility (free concentration) ([2]; SGF, 12 hrs): ≥8200 µg/mL; pH (of filtrate) ([2]; SGF, 12 hrs): 2.05 |
| 0.33 | No change | 2900 | 6.48 | 2800 | 6.48 | 3000 | 6.49 | 2000 | 7.39 | No | 1900 | 7.33 | No | 2000 | 7.45 | No | 2600 | 1.80 | 2400 | CCCCCCCC(=O)N[C@H](CN1CCCC1)[C@H](O)c1ccc2c(c1)OCCO2.CCCCCCCC(=O)N[C@H](CN1CCCC1)[C@H](O)c1ccc2c(c1)OCCO2.O.O.O=S(=O)(O)c1cccc2c(S(=O)(=O)O)cccc12 | hygroscopic weight gain at 25° C./80% RH ([1]; DVS): 0.33 wt %; Transformation of crystalline form ([1]; listed as crystalline form C of 1,5-naphthalene disulfonate): no change in crystalline form; change in crystalline form (XRPD) [3, 7]: no change in crystalline form; decrease in HPLC purity [3, 7]: no change in crystalline form or decrease in HPLC purity was observed; FC: Crystalline form transformation ([2]; FaSSIF, 1 hr): No; FC: Crystalline form transformation ([2]; FaSSIF, 4 hrs): No; FC: Crystalline form transformation ([2]; FaSSIF, 12 hrs): No; FC: Crystalline form transformation ([2]; SGF, 1 hr): No; pH (of filtrate) ([2]; SGF, 4 hrs): 1.88; FC: Crystalline form transformation ([2]; SGF, 4 hrs): No; S: Solubility (free concentration) ([2]; SGF, 12 hrs): 2600 µg/mL; pH (of filtrate) ([2]; SGF, 12 hrs): 1.89; FC: Crystalline form transformation ([2]; SGF, 12 hrs): No |
|  |  |  |  |  |  |  |  |  |  |  |  |  |  |  |  |  |  |  |  | CCCCCCCC(=O)NC(CN1CCCC1)C(O)c1ccc2c(c1)OCCO2.O=C(O)C(O)C(O)C(=O)O (stereo not drawn) [1:1 tartrate salt] | hygroscopicity (in words) [4]: too hygroscopic for formulation |
|  |  |  |  |  |  |  |  |  |  |  |  |  |  |  |  |  |  |  |  | CCCCCCCC(=O)N[C@H](CN1CCCC1)[C@H](O)c1ccc2c(c1)OCCO2 [eliglustat] | predicted mean increase in PR interval [5]: 22 (26) milliseconds; predicted mean increase in QRS interval [5]: 7 (10) milliseconds; predicted mean increase in QTcF interval [5]: 13 (19) milliseconds |
|  |  |  |  |  |  |  |  |  |  |  |  |  |  |  |  |  |  |  |  | CCCCCCCC(=O)N[C@H](CN1CCCC1)[C@H](O)c1ccc2c(c1)OCCO2.Cl [hydrochloride salt] | hygroscopicity (in words) [4]: too hygroscopic for formulation |

| Structure (SMILES) | Hygroscopic weight gain at 25° C./80% RH ([1]; DVS) [%] | Transformation of crystalline form [1] | S: Solubility (free concentration) ([2]; FaSSIF, 1 hr) [µg/mL] | pH (of filtrate) ([2]; FaSSIF, 1 hr) | S: Solubility (free concentration) ([2]; FaSSIF, 4 hrs) [µg/mL] | pH (of filtrate) ([2]; FaSSIF, 4 hrs) | S: Solubility (free concentration) ([2]; FaSSIF, 12 hrs) [µg/mL] | pH (of filtrate) ([2]; FaSSIF, 12 hrs) | S: Solubility (free concentration) ([2]; H2O, 1 hr) [µg/mL] | pH (of filtrate) ([2]; H2O, 1 hr) | FC: Crystalline form transformation ([2]; H2O, 1 hr) | S: Solubility (free concentration) ([2]; H2O, 4 hrs) [µg/mL] | pH (of filtrate) ([2]; H2O, 4 hrs) | FC: Crystalline form transformation ([2]; H2O, 4 hrs) | S: Solubility (free concentration) ([2]; H2O, 12 hrs) [µg/mL] | pH (of filtrate) ([2]; H2O, 12 hrs) | FC: Crystalline form transformation ([2]; H2O, 12 hrs) | S: Solubility (free concentration) ([2]; SGF, 1 hr) [µg/mL] | pH (of filtrate) ([2]; SGF, 1 hr) | S: Solubility (free concentration) ([2]; SGF, 4 hrs) [µg/mL] | further results |
| --- | --- | --- | --- | --- | --- | --- | --- | --- | --- | --- | --- | --- | --- | --- | --- | --- | --- | --- | --- | --- | --- |
| CCCCCCCC(=O)N[C@H](CN1CCCC1)[C@H](O)c1ccc2c(c1)OCCO2 [Free crystalline form A, reference compound] | 0.01 | did not change in crystalline form; also recorded: No change | 4400 | 7.31 | 4400 | 7.29 | 4200 | 7.30 | 120 | 9.24 | No | 130 | 9.03 | No | 170 | 8.80 | No | 6600 | 7.27 | 6700 | hygroscopicity (in words) ([1]; DVS): almost no hygroscopicity; change in crystalline form (XRPD) [3, 7]: no change in crystalline form; decrease in HPLC purity [3, 7]: no change in crystalline form or decrease in HPLC purity was observed; FC: Crystalline form transformation ([2]; FaSSIF, 1 hr): No; FC: Crystalline form transformation ([2]; FaSSIF, 4 hrs): No; FC: Crystalline form transformation ([2]; FaSSIF, 12 hrs): No; FC: Crystalline form transformation ([2]; SGF, 1 hr): No; pH (of filtrate) ([2]; SGF, 4 hrs): 7.26; FC: Crystalline form transformation ([2]; SGF, 4 hrs): No; S: Solubility (free concentration) ([2]; SGF, 12 hrs): 6500 µg/mL; pH (of filtrate) ([2]; SGF, 12 hrs): 7.30; FC: Crystalline form transformation ([2]; SGF, 12 hrs): No |
